Two compounds from ChEMBL document CHEMBL4152386, “Discovery of a Novel Inhaled PI3Kδ Inhibitor for the Treatment of Respiratory Diseases” (J Med Chem, 2018) can be followed below.

Each structure is given as a SMILES string. Converted amounts (≈) assume the structure as drawn.

Data set [1] deals with Phosphatidylinositol 4,5-bisphosphate 3-kinase catalytic subunit gamma isoform (Homo sapiens, UniProt P48736). The data set is described as follows: Inhibition of recombinant human N-terminal His6-tagged full length p110gamma using PIP2 as substrate preincubated for 30 mins followed by substrate addition by HTRF assay.
Phosphatidylinositol 4,5-bisphosphate 3-kinase catalytic subunit gamma isoform, sequence (P48736 whole entry, canonical isoform): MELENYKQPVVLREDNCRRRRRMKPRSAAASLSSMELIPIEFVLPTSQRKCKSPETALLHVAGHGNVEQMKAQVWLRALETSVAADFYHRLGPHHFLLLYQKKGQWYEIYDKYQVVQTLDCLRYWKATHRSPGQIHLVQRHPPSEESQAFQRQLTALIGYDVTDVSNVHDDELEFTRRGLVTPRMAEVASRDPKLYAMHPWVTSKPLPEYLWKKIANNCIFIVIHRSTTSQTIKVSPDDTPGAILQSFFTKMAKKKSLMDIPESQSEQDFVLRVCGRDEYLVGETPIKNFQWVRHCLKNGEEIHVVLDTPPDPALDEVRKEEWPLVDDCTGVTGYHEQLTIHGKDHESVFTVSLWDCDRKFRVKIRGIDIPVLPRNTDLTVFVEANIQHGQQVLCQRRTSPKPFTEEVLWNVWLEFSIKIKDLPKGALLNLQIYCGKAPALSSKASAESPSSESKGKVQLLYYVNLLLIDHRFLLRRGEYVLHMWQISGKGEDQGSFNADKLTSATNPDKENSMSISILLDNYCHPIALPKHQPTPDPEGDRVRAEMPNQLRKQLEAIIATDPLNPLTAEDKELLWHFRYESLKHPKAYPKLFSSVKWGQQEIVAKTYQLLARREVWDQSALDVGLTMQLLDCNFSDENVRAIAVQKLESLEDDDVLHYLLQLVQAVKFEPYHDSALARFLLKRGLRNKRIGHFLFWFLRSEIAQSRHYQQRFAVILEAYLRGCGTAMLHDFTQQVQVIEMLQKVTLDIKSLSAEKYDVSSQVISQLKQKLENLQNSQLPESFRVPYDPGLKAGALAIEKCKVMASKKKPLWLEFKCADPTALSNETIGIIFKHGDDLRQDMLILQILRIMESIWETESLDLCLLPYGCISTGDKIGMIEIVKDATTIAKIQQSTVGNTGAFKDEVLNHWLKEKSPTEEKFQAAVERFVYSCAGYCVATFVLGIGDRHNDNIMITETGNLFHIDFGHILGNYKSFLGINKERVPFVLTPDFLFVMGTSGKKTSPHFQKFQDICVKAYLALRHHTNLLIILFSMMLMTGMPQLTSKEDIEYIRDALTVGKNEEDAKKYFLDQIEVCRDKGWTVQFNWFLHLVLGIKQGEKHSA
Data set [2] in a line: Drug metabolism in rat liver microsomes assessed as disappearance of parent compound at 5 uM after 30 mins in presence of NADPH by UPLC-MS/MS analysis. Format: ADME, microsome. The following applies: read-out: Drug metabolism. In general terms: Liver microsomes are a subcellular fraction often used to study metabolism.
The nature of data set [3]: Drug metabolism in rat liver microsomes assessed as disappearance of parent compound at 5 uM preincubated for 3 mins followed UDPG addition and measured after 120 mins by UPLC-MS/MS analysis. Format: ADME, microsome. The following applies: read-out: Drug metabolism.
Data set [4] in a line: Drug metabolism in human liver microsomes assessed as disappearance of parent compound at 5 uM after 30 mins in presence of NADPH by UPLC-MS/MS analysis. Format: ADME, microsome. The conditions noted are these: read-out: Drug metabolism.
Data set [5] in a line: Drug metabolism in human liver microsomes assessed as disappearance of parent compound at 5 uM preincubated for 3 mins followed UDPG addition and measured after 120 mins by UPLC-MS/MS analysis. In kind it is ADME, microsome. The conditions noted are these: read-out: Drug metabolism.
Data set [6] addresses T1, Phosphatidylinositol 4,5-bisphosphate 3-kinase catalytic subunit delta isoform (Homo sapiens, UniProt O00329).
T1 sequence (O00329 whole entry): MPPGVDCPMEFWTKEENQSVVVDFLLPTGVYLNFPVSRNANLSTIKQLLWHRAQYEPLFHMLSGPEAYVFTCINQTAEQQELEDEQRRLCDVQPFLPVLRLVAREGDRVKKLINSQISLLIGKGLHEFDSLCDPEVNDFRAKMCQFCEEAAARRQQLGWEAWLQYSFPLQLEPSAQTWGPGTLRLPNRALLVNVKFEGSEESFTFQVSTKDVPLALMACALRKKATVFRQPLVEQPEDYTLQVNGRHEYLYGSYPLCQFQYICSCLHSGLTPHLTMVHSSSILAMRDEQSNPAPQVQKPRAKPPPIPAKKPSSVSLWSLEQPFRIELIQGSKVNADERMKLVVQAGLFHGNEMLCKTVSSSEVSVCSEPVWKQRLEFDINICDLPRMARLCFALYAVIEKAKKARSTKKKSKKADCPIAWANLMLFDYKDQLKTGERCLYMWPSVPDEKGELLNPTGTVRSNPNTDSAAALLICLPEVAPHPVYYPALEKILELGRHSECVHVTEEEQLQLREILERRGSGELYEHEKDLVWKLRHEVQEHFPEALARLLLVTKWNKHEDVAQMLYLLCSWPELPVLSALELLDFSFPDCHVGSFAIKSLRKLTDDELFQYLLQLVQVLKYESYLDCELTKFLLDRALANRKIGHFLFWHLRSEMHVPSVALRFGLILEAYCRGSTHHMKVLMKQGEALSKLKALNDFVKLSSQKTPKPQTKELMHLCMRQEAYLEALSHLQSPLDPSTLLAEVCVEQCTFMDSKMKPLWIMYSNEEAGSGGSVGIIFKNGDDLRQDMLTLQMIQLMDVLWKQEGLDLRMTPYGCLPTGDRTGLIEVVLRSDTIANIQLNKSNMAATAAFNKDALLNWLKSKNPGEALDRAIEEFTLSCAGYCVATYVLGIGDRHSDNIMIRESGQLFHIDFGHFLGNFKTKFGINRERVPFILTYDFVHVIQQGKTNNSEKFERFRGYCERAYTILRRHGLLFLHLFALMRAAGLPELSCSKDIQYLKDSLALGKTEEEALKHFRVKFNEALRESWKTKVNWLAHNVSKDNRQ
The data set is described as follows: Inhibition of PI3Kdelta in human THP-1 cells assessed as reduction in M-CSF-stimulated AKT phosphorylation at Thr308 preincubated for 30 mins followed by M-CSF addition for 3 mins by ELISA. Format: cell-based. For orientation: In an ELISA, binding on a coated surface is turned into a signal by an enzyme label.

Data set [7] is described as follows: Apparent permeability of the compound at 20 uM by PAMPA assay. In kind it is ADME. (PAMPA measures passive passage across an artificial lipid membrane.)
Data set [8] can be described thus: Thermodynamic aqueous solubility of the compound at pH 7.4. In kind it is physicochemical. The conditions noted are these: buffer, read-out: Therm_solubility.
Data set [9] can be described thus: AUC in Wistar rat at 1 mg/kg, iv. Format: ADME, organism-based. The conditions noted are these: in vivo.
Data set [10] in a line: Cmax in Wistar rat at 1 mg/kg, iv. Format: ADME, organism-based. Also on record: dose 1 mg/kg, route intravenous. The conditions noted are these: in vivo.
A short description of data set [11]: Clearance in Wistar rat at 1 mg/kg, iv. In kind it is ADME, organism-based. The conditions noted are these: in vivo.
Data set [12] in a line: Volume of distribution at steady state in Wistar rat at 1 mg/kg, iv. In kind it is ADME, organism-based. The conditions noted are these: in vivo, read-out: Vdss.
Data set [13] in a line: Half life in Wistar rat at 1 mg/kg, iv. Format: ADME, organism-based. The conditions noted are these: in vivo.
The nature of data set [14]: Oral bioavailability in Wistar rat at 1 mg/kg. Format: ADME, organism-based. The conditions noted are these: in vivo.
Data set [15] can be described thus: Protein binding in rat plasma at 1 uM by equilibrium dialysis. The conditions noted are these: read-out: PPB (converted). Format: ADME, cell-free.
Data set [16] is described as follows: AUC in Wistar rat lung at 0.015 mg/kg, it administered as solution. In kind it is ADME, organism-based. The following applies: in vivo, inhaled_or_intranasal.
Data set [17] is described as follows: AUC in Wistar rat lung at 0.3 mg/kg, it administered as suspension. Format: ADME, organism-based. The following applies: in vivo, inhaled_or_intranasal.
Data set [18] is described as follows: AUC in Wistar rat plasma at 0.015 mg/kg, it administered as solution. Format: ADME, organism-based. The following applies: inhaled or intranasal.
Data set [19] can be described thus: AUC in Wistar rat plasma at 0.3 mg/kg, it administered as suspension. Format: ADME, organism-based. The following applies: inhaled or intranasal.
The nature of data set [20]: Ratio of AUC in lung to plasma of Wistar rat at 0.015 mg/kg, it administered as solution. The following applies: Wistar, lung and plasma, inhaled or intranasal. Format: ADME, organism-based.
A short description of data set [21]: Ratio of AUC in lung to plasma of Wistar rat at 0.3 mg/kg, it administered as suspension. In kind it is ADME, organism-based. The conditions noted are these: Wistar, lung and plasma, inhaled or intranasal.
The nature of data set [22]: Cmax in Wistar rat lung at 0.015 mg/kg, it administered as solution. Also on record: dose 0.015 mg/kg. The conditions noted are these: inhaled or intranasal. In kind it is ADME, organism-based.
Data set [23] is described as follows: Cmax in Wistar rat lung at 0.3 mg/kg, it administered as suspension. The conditions noted are these: inhaled or intranasal. Also on record: dose 0.3 mg/kg. In kind it is ADME, organism-based.
A short description of data set [24]: Cmax in Wistar rat plasma at 0.015 mg/kg, it administered as solution. In kind it is ADME, organism-based. Also on record: dose 0.015 mg/kg. The following applies: inhaled or intranasal.
Data set [25] in a line: Half life in Wistar rat lung at 0.015 mg/kg, it administered as solution. Format: ADME, organism-based. The following applies: inhaled or intranasal.
Data set [26] can be described thus: Half life in Wistar rat lung at 0.3 mg/kg, it administered as suspension. Format: ADME, organism-based. The conditions noted are these: inhaled or intranasal.
Data set [27] can be described thus: Half life in Wistar rat plasma at 0.015 mg/kg, it administered as solution. Format: ADME, organism-based. The conditions noted are these: inhaled or intranasal.
Data set [28] in a line: Half life in Wistar rat plasma at 0.3 mg/kg, it administered as suspension. Format: ADME, organism-based. The following applies: inhaled or intranasal.
In data set [29] the test system is Rattus norvegicus. Description: Anti-inflammatory activity in Brown Norway rat model of ovalbumin-induced inflammation assessed inhibition of neutrophil infiltration in bronchoalveolar lavage at 1 mg/kg, it administered 1 hr before ovalbumin aerosol challenge and measured 24 hrs post challenge by hematology analysis relative to control. Format: functional. The following applies: inhaled or nasal.

The target in data set [30] is PI3-kinase p110-delta/p85-alpha (Homo sapiens, UniProt O00329).
PI3-kinase p110-delta/p85-alpha, sequence (P27986 whole entry, one chain of several): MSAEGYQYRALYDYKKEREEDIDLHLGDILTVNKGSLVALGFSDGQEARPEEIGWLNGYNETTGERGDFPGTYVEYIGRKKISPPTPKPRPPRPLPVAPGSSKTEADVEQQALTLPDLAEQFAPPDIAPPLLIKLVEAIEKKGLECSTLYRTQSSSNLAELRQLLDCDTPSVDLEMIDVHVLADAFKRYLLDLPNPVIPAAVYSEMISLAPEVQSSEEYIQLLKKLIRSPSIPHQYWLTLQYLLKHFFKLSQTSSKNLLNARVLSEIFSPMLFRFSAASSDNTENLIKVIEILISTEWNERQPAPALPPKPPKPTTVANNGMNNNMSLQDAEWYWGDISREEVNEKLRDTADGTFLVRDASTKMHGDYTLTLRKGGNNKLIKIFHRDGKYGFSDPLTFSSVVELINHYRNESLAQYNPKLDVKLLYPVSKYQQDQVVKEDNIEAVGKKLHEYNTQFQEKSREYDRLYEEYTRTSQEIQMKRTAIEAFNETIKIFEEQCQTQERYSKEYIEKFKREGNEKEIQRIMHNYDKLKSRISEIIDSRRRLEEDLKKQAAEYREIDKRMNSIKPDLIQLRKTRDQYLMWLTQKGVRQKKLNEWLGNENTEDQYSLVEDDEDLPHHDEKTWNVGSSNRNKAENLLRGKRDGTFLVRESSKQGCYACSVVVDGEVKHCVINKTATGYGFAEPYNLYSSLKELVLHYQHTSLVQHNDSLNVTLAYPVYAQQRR
Description: Inhibition of recombinant human N-terminal His-tagged full length p110delta/recombinant human full length p85alpha using PIP2 as substrate preincubated for 30 mins followed by substrate addition by HTRF assay
Data set [31] addresses PI3-kinase p110-alpha/p85-alpha (Homo sapiens, UniProt P42336).
Description: Inhibition of recombinant human N-terminal His6-tagged full length p110alpha/recombinant human full length p85alpha using PIP2 as substrate preincubated for 30 mins followed by substrate addition by HTRF assay
The target in data set [32] is PI3K p110 beta/p85 alpha (Homo sapiens, UniProt P42338).
PI3K p110 beta/p85 alpha, sequence (P27986 whole entry): as the sequence (P27986 whole entry, one chain of several) above
PI3K p110 beta/p85 alpha, sequence (P42338 whole entry): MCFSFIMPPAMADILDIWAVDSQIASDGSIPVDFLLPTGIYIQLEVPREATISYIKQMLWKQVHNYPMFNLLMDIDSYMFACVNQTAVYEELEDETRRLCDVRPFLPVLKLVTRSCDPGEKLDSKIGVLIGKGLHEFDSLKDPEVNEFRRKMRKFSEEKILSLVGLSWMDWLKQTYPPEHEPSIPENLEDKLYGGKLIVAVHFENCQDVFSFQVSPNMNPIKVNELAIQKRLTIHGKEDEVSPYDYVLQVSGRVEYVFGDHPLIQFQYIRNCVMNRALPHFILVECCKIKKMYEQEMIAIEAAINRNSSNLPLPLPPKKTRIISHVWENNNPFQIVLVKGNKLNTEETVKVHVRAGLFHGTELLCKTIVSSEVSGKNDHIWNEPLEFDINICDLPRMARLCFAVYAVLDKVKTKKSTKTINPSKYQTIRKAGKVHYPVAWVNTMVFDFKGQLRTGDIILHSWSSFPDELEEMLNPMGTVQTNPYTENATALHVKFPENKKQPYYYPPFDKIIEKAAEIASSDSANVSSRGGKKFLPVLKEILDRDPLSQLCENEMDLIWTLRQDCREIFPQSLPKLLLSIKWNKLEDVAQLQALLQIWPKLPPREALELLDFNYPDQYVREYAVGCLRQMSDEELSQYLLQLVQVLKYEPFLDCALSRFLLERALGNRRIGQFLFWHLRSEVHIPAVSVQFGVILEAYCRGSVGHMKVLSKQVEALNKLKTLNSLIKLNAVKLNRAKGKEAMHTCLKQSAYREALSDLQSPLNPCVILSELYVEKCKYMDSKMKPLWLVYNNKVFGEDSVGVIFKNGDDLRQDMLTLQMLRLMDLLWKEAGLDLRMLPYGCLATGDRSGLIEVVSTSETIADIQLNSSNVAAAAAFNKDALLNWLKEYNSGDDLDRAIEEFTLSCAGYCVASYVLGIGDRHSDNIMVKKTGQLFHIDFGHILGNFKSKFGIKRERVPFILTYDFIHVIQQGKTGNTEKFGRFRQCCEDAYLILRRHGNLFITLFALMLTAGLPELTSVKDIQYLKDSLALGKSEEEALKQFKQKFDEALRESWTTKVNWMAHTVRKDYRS
Description: Inhibition of recombinant human N-terminal His6-tagged full length p110beta/recombinant human full length p85alpha using PIP2 as substrate preincubated for 30 mins followed by substrate addition and HTRF assay
The test system of data set [33] is Rattus norvegicus. Description: Anti-inflammatory activity in Brown Norway rat model of ovalbumin-induced inflammation assessed inhibition of eosinophil infiltration in bronchoalveolar lavage at 0.3 mg/kg, it administered 1 hr before ovalbumin aerosol challenge and measured 24 hrs post challenge by hematology analysis relative to control. Format: functional. The following applies: inhaled or nasal.

Data set [34] concerns Rattus norvegicus. Description: Anti-inflammatory activity in Brown Norway rat model of ovalbumin-induced inflammation assessed inhibition of neutrophil infiltration in bronchoalveolar lavage at 0.3 mg/kg, it administered 1 hr before ovalbumin aerosol challenge and measured 24 hrs post challenge by hematology analysis relative to control. In kind it is functional. The following applies: inhaled or nasal.

PI3-kinase p110-alpha/p85-alpha, sequence (P27986 whole entry): as the sequence (P27986 whole entry, one chain of several) above
PI3-kinase p110-alpha/p85-alpha, sequence (P42336 whole entry): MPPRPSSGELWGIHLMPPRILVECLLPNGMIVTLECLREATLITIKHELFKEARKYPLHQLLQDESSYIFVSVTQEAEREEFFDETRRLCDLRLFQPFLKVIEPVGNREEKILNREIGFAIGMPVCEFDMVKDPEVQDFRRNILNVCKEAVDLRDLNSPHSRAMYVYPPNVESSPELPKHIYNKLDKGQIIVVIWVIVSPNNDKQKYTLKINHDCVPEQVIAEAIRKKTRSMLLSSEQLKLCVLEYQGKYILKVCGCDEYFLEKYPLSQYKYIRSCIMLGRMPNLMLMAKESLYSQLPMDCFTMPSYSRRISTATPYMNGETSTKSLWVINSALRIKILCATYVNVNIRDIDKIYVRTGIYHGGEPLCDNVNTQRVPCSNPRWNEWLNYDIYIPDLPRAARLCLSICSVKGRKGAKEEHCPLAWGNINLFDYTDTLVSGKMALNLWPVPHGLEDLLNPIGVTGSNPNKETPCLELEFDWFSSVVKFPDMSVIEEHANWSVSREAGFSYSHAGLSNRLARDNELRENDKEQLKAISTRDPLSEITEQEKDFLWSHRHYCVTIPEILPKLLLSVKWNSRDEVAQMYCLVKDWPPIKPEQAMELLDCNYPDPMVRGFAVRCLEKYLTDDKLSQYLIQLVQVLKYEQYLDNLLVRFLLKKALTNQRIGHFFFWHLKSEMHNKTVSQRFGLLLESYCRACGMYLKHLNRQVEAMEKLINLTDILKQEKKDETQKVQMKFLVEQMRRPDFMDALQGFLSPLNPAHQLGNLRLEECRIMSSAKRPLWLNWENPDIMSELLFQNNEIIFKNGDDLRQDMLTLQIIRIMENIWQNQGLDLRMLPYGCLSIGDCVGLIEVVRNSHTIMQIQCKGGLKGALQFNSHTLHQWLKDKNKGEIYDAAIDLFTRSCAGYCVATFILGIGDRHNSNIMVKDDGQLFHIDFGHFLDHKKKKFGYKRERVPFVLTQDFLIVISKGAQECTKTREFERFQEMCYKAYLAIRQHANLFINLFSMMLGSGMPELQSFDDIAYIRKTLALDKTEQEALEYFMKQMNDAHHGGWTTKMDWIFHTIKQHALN

`Cc1ccn2nc([C@H](C)Nc3ncnc(N)c3-c3ccc(O)c(F)c3)n(-c3ccccc3)c(=O)c12`: the 50% inhibitory concentration (IC50) (usually the point on the concentration scale where inhibition reaches its midpoint) in data set [1] turned out to be 11 nM; in data set [6], 4.4 nM; in data set [30], 0.5 nM; in [31], 1100 nM; in [32] it was 87 nM. The metabolised at 0.5 h, 5 µM in data set [2] came out at 44%; in [4], 71%. Also, the metabolised at 2 h, 5 µM came out at 96% in data set [3] and 97% in [5]. Further, the Papp (commonly a coefficient for how fast a substance crosses the barrier) at 20 µM in data set [7] is 1.7 ×10⁻⁶ cm/s. Further, in [8], the solubility thermodynamic was determined as 36 µg/mL (≈ 76.4 µM). In addition, the AUC in [9] was 149 ng·h/mL; in data set [16], 0.2 µg·h/g; in [17] it was 30.6 µg·h/g; in data set [18] it was 6.4 ng·h/mL; in data set [19] it was 148 ng·h/mL. Further, the Cmax (as a rule, the peak of the concentration-time curve) in data set [10] is 236 ng/mL; in data set [22], 700 ng/g; in [23] it was 18600 ng/g; in data set [24], 36.3 ng/mL. Besides, the clearance (in general, a measure of how efficiently the substance is removed, as volume per time) in data set [11] was 112 mL/min/kg. Moreover, in data set [12], the Vd turned out to be 5.2 L/kg. For the same compound, the half-life – broadly, how long it takes for the measured level to halve – is 1 h in [13]; 4.7 h in [25]; 5.7 h in data set [26]; 0.7 h in data set [27]; 1.1 h in data set [28]. The bioavailability – broadly, dose-corrected exposure relative to a reference, in per cent – in [14] came out at 13%. For the same compound, the fraction unbound at 1 µM in data set [15] is 0.054. For the same compound, the Kp – broadly, tissue or fluid exposure divided by exposure in the circulation – turned out to be 31 in data set [20] and 207 in [21]. Testing at 1 mg/kg in data set [29] gave an inhibition in vivo of 37%.
Turning to `C[C@@H]1C[C@H]2[C@@H]3C[C@H](F)C4=CC(=O)C=C[C@]4(C)[C@@]3(F)[C@@H](O)C[C@]2(C)[C@@]1(O)C(=O)SCF` [FLUTICASONE], the inhibition in vivo (commonly how much of the control response was suppressed) at 0.3 mg/kg in [33] is 82%; in data set [34] it was 89%.
